Laboratory results taken from patent US20190216761A1, “COMPOSITIONS COMPRISING 15-HEPE AND METHODS OF USING THE SAME” (Afimmune Limited, priority 2015, published 2019).
Marks after values point to notes of the source that are not given here.

How the values were obtained:
Format in all cases: cell-based
[1] = target: T1, hPPARδ (Homo sapiens, UniProt Q03181); assay: PPAR agonist reporter assay (Gal4 hybrid receptor, luciferase)
T1 construct: expressed in transfected cells
T1 sequence (Q03181 211-439 limits assumed): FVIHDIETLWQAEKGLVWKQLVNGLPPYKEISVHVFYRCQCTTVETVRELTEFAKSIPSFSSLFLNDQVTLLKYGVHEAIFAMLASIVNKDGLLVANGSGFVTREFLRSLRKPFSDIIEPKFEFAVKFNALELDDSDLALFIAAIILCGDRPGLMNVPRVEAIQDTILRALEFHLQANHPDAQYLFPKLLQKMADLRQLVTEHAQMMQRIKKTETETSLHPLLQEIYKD
Experimental: (§1) This study utilized proprietary reporter cells expressing a hybrid receptor comprising the N-terminal Gal4 DNA binding domain fused to the ligand binding domain of the specific human nuclear receptor (hPPARα, hPPARδ, and hPPARγ) and rat nuclear receptor (rPPARα, rPPARδ, and rPPARγ). The reporter vectors used in this Example comprise the firefly luciferase gene functionally linked to the Gal4 upstream activation sequence.
(§2) Nuclear Receptor assay was performed by dispensing 100 μL of a suspension of Reporter Cells in Cell Recovery Medium (CRM) containing 10% charcoal stripped FBS into each well of a white 96-well plate. Test compounds were diluted using compound screening medium (CSM) containing 10% charcoal stripped FBS to generate “2×-concentration” treatment media. Immediately after this dilution step, 100 μL of each diluted 2×-concentration treatment medium was dispensed (in triplicate) into the Reporter Cell-containing assay wells.
(§3) After incubation at 37° C. for 24 hours, the treatment media was discarded. 100 μL of Luciferase Detection Reagent substrate was added to each well and RLUs were quantified from each well to determine nuclear receptor activities.

[2] = target: T2, hPPARγ (Homo sapiens, UniProt P37231); assay: as above
T2 construct: expressed in transfected cells
T2 sequence (P37231 238-503 limits assumed): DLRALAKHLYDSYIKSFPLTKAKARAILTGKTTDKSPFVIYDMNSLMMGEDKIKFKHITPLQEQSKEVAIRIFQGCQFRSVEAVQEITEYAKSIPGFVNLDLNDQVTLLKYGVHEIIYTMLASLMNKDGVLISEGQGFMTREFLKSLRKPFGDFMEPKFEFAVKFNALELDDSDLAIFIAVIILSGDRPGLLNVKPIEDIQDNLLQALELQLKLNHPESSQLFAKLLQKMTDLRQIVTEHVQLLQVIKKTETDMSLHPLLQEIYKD
Experimental: as §1, §2, §3

[3] = system: rPPARα Reporter Cells; assay: Live cell multiplex assay
Experimental: as §1
(§4) Nuclear Receptor assay was performed by suspending Reporter Cells in CRM containing 10% charcoal stripped FBS. 2×-EC80 concentrations of the appropriate reference agonist were then added to the Reporter Cell suspension, and 100 μL of the mixture dispensed into wells of a white 96-well plate. Test compounds were diluted using compound screening medium (CSM) containing 10% charcoal stripped FBS to generate “2×-concentration” treatment media. Immediately after this dilution step, 100 μL of each diluted 2×-concentration treatment medium was dispensed (in triplicate) into the Reporter Cell-containing assay wells.
(§5) After incubation at 37° C. for 24 hours, the treatment media was discarded. Each well was rinsed once with LCM Buffer; LCM substrate was then added. After incubation for 30 minutes at 37° C., fluorescence was measured to determine the relative number of live cells per assay well. LCM substrate was then discarded and 100 μL of Luciferase Detection Reagent substrate was added to each well. RLUs were quantified from each well to determine nuclear receptor activities.

[4] = system: hPPARα Reporter Cells; assay: Live cell multiplex assay
Experimental: as §1, §4, §5

[5] = system: rPPARγ Reporter Cells; assay: Live cell multiplex assay
Experimental: as §1, §4, §5

[6] = system: hPPARγ Reporter Cells; assay: Live cell multiplex assay
Experimental: as §1, §4, §5

[7] = system: hPPARδ Reporter Cells; assay: Live cell multiplex assay
Experimental: as §1, §4, §5

[8] = system: rPPARδ Reporter Cells; assay: Live cell multiplex assay
Experimental: as §1, §4, §5

[9] = at low to higher doses in the dose response curve

CC/C=C\C[C@H](O)/C=C/C=C\C/C=C\C/C=C\CCCC(=O)OCC [15-HEPE-EE, 15-HEPE ethyl ester]
Fold-Activation (vs. 0.10% DMSO) hPPAR-δ ([1]; 137 nM): 1.4 fold
Fold-Activation (vs. 0.10% DMSO) hPPAR-δ ([1]; 412 nM): 2.1* fold
Fold-Activation (vs. 0.10% DMSO) hPPAR-δ ([1]; 1,235 nM): 2.1* fold
Fold-Activation (vs. 0.10% DMSO) hPPAR-δ ([1]; 3,704 nM): 2.4* fold
Fold-Activation (vs. 0.10% DMSO) hPPAR-δ ([1]; 11,111 nM): 5.6* fold
Fold-Activation (vs. 0.10% DMSO) hPPAR-δ ([1]; 33,333 nM): 4.1* fold
Fold-Activation (vs. 0.10% DMSO) hPPAR-δ ([1]; 100,000 nM): 8.0* fold
Fold-Activation (vs. 0.10% DMSO) hPPAR-δ ([1]; 300,000 nM): 0.073 fold
agonism activity against human PPARδ (in words) [1, 9]: moderate agonism activity
Fold-Activation (vs. 0.10% DMSO) hPPAR-γ ([2]; 137 nM): 1.0 fold
Fold-Activation (vs. 0.10% DMSO) hPPAR-γ ([2]; 412 nM): 1.1 fold
Fold-Activation (vs. 0.10% DMSO) hPPAR-γ ([2]; 1,235 nM): 1.3 fold
Fold-Activation (vs. 0.10% DMSO) hPPAR-γ ([2]; 3,704 nM): 1.5 fold
Fold-Activation (vs. 0.10% DMSO) hPPAR-γ ([2]; 11,111 nM): 2.1* fold
Fold-Activation (vs. 0.10% DMSO) hPPAR-γ ([2]; 33,333 nM): 3.6* fold
Fold-Activation (vs. 0.10% DMSO) hPPAR-γ ([2]; 100,000 nM): 6.1* fold
Fold-Activation (vs. 0.10% DMSO) hPPAR-γ ([2]; 300,000 nM): 0.027 fold
agonism activity against human PPARγ (in words) [2, 9]: moderate agonism activity
% Live cells vs. 0.10% DMSO, rPPAR-α ([3]; 137 nM): 89%
% Live cells vs. 0.10% DMSO, rPPAR-α ([3]; 412 nM): 98%
% Live cells vs. 0.10% DMSO, rPPAR-α ([3]; 1,235 nM): 97%
% Live cells vs. 0.10% DMSO, rPPAR-α ([3]; 3,704 nM): 99%
% Live cells vs. 0.10% DMSO, rPPAR-α ([3]; 11,111 nM): 99%
% Live cells vs. 0.10% DMSO, rPPAR-α ([3]; 33,333 nM): 98%
% Live cells vs. 0.10% DMSO, rPPAR-α ([3]; 100,000 nM): 76%
% Live cells vs. 0.10% DMSO, rPPAR-α ([3]; 300,000 nM): 3.1%
% Live cells vs. 0.10% DMSO, hPPAR-α ([4]; 137 nM): 96%
% Live cells vs. 0.10% DMSO, hPPAR-α ([4]; 412 nM): 94%
% Live cells vs. 0.10% DMSO, hPPAR-α ([4]; 1,235 nM): 119%
% Live cells vs. 0.10% DMSO, hPPAR-α ([4]; 3,704 nM): 120%
% Live cells vs. 0.10% DMSO, hPPAR-α ([4]; 11,111 nM): 117%
% Live cells vs. 0.10% DMSO, hPPAR-α ([4]; 33,333 nM): 115%
% Live cells vs. 0.10% DMSO, hPPAR-α ([4]; 100,000 nM): 69%
% Live cells vs. 0.10% DMSO, hPPAR-α ([4]; 300,000 nM): 35%
% Live cells vs. 0.10% DMSO, rPPAR-γ ([5]; 137 nM): 98%
% Live cells vs. 0.10% DMSO, rPPAR-γ ([5]; 412 nM): 101%
% Live cells vs. 0.10% DMSO, rPPAR-γ ([5]; 1,235 nM): 101%
% Live cells vs. 0.10% DMSO, rPPAR-γ ([5]; 3,704 nM): 100%
% Live cells vs. 0.10% DMSO, rPPAR-γ ([5]; 11,111 nM): 101%
% Live cells vs. 0.10% DMSO, rPPAR-γ ([5]; 33,333 nM): 101%
% Live cells vs. 0.10% DMSO, rPPAR-γ ([5]; 100,000 nM): 99%
% Live cells vs. 0.10% DMSO, rPPAR-γ ([5]; 300,000 nM): 91%
% Live cells vs. 0.10% DMSO, hPPAR-γ ([6]; 137 nM): 86%
% Live cells vs. 0.10% DMSO, hPPAR-γ ([6]; 412 nM): 99%
% Live cells vs. 0.10% DMSO, hPPAR-γ ([6]; 1,235 nM): 101%
% Live cells vs. 0.10% DMSO, hPPAR-γ ([6]; 3,704 nM): 101%
% Live cells vs. 0.10% DMSO, hPPAR-γ ([6]; 11,111 nM): 100%
% Live cells vs. 0.10% DMSO, hPPAR-γ ([6]; 33,333 nM): 99%
% Live cells vs. 0.10% DMSO, hPPAR-γ ([6]; 100,000 nM): 91%
% Live cells vs. 0.10% DMSO, hPPAR-γ ([6]; 300,000 nM): 4.9%
% Live cells vs. 0.10% DMSO, hPPAR-δ ([7]; 137 nM): 95%
% Live cells vs. 0.10% DMSO, hPPAR-δ ([7]; 412 nM): 98%
% Live cells vs. 0.10% DMSO, hPPAR-δ ([7]; 1,235 nM): 99%
% Live cells vs. 0.10% DMSO, hPPAR-δ ([7]; 3,704 nM): 100%
% Live cells vs. 0.10% DMSO, hPPAR-δ ([7]; 11,111 nM): 101%
% Live cells vs. 0.10% DMSO, hPPAR-δ ([7]; 33,333 nM): 101%
% Live cells vs. 0.10% DMSO, hPPAR-δ ([7]; 100,000 nM): 101%
% Live cells vs. 0.10% DMSO, hPPAR-δ ([7]; 300,000 nM): 7.7%
% Live cells vs. 0.10% DMSO, rPPAR-δ ([8]; 137 nM): 99%
% Live cells vs. 0.10% DMSO, rPPAR-δ ([8]; 412 nM): 97%
% Live cells vs. 0.10% DMSO, rPPAR-δ ([8]; 1,235 nM): 98%
% Live cells vs. 0.10% DMSO, rPPAR-δ ([8]; 3,704 nM): 99%
% Live cells vs. 0.10% DMSO, rPPAR-δ ([8]; 11,111 nM): 100%
% Live cells vs. 0.10% DMSO, rPPAR-δ ([8]; 33,333 nM): 100%
% Live cells vs. 0.10% DMSO, rPPAR-δ ([8]; 100,000 nM): 99%
% Live cells vs. 0.10% DMSO, rPPAR-δ ([8]; 300,000 nM): 5.0%
